Earlier results on twelve compounds are cited in patent publication US20110252579A1, “METHOD FOR TREATING FABRICS” (priority 2010, published 2011).

Structures can show the parent of a compound that is named as a salt.

Tested on in one data set: not given
The settings on record: in water.
Turning to `CC1(C)C(=O)N(CO)C(=O)N1CO` [DMDM hydantoin, 1,3-bis(hydroxymethyl)-5,5-dimethyl-2,4-imidazolidinedione], the water solubility entry is “more than 50%”.
As to `[H]/N=C(\N/C(=N/[H])NCCCCCCNC(=N)NC(=N)Nc1ccc(Cl)cc1)Nc1ccc(Cl)cc1` [chlorhexidine digluconate salt, 1,1′-hexamethylene bis(5-(p-chlorophenyl)biguanide), reference compound], the water solubility entry was “about 70%”.
Consider `OCCc1ccccc1` [2-phenylethanol], for which the water solubility result is “about 2%”.
`[H]/N=C(\N/C(=N/[H])NCCCCCCNC(=N)NC(=N)Nc1ccc(Cl)cc1)Nc1ccc(Cl)cc1` [chlorhexidine diacetate salt, 1,1′-hexamethylene bis(5-(p-chlorophenyl)biguanide), reference compound]: the water solubility result is listed as “about 1.8%”.
On to `[Na+].[O-][n+]1ccccc1[S-]` [sodium pyrithione], for which the water solubility entry is “about 50%”.
As to `CC(C)(O)C(Cl)(Cl)Cl` [chlorobutanol, 1,1,1-Trichloro-2-methylpropan-2-ol], the water solubility result is reported as “about 0.8%”.
Take `O=[N+]([O-])C(Br)(CO)CO` [Bronopol, 2-bromo-2-nitropropane-1,3-diol]: the water solubility entry is on record as “about 25%”.
In the case of `OCCOc1ccccc1` [2-phenoxyethanol], the water solubility entry is given as “about 2.67%”.
`OCc1ccccc1` [benzyl alcohol]: the water solubility result is listed as “about 4%”.
Turning to `O=[N+]([O-])C1(Br)COCOC1` [Bronidox L, 5-bromo-5-nitro-1,3-dioxane], the water solubility entry is recorded as “about 0.46%”.

A further data set concerns typical Gram negative and positive bacteria, fungi and yeasts. As to conditions: level from about 0.001% to about 0.5% by weight of the usage composition.
For the compound `Cn1sc2c(c1=O)CCC2` [Promexal, 2-methyl-4,5-trimethylene-4-isothiazolin-3-one], the “effectiveness against Gram negative and positive bacteria, fungi and yeasts” value was “effective”.
Regarding `O=c1[nH]sc2ccccc12` [Proxel, 1,2-benzisothiazolin-3-one], the “effectiveness against Gram negative and positive bacteria, fungi and yeasts” value is listed as “effective”.

The subject of the next data set is bacteria.
Settings: not given
With `CC1(C)C(=O)N(CO)C(=O)N1CO` [DMDM hydantoin, 1,3-bis(hydroxymethyl)-5,5-dimethyl-2,4-imidazolidinedione], the antimicrobial spectrum result was “mainly effective on bacteria”.
